Assay results: US5047433A, “N-alkyl derivatives of 2-amino-6,7-dimethoxy tetraline and pharmaceutical compositions having antihypertensive activity containing same” (Sigma-Tau Industrie Farmaceutiche Riunite S.p.A., priority 1986, dated 1991)
Counter-ions that a name gives are not always drawn. Like-named read-outs stand apart in the source and are kept apart here.

Tests used:
Hypertensive SHR rats = assay: Non-invasive measure of arterial pressure in genetically hypertensive (SHR) rats; assay type: in vivo, rat (male SHR); details: oral, 40 mg/kg
Procedure: Male SHR rats (Charles River) of 4-6 months were used in this test. The compounds listed were dissolved in either 0.9% saline or twice distilled water and administered via the oral route (10-40 mg/5 ml/kg).
The animals, housed in individual cages at 23° C. and 60% humidity, had free access to food and drinking water. A BP recorder (Letica) equipped with a two-way polygraph was used. The systolic and diastolic pressure and the heart rate were recorded. The animals, a few days before the test began, were accustomed to be constrained on a heating plate (at 38° C.±1° C. for 20 minutes).
During the pre-tests, assessments were made at time 0 (8^30 -9^30 a.m.) and after 2 and 4 hours.
Every assessment was the average of 3-5 measures and the maximum residence time of the animal in the thermostatized chamber (for the whole test duration) was 40 minutes; the time interval between administrations of different doses of the same compound was 3 days.
(§1) Student's "t" test was used for assessing the differences with respect to the control group and its own 0 time.

[1] = Tolerability in mice (oral and intravenous); design: species or system mouse (Male Albino Swiss); details: mouse, in vivo, monitored 7 days
Procedure: Male Albino Swiss mice weighing 22-24 g were used in this test.
One group of animals (4/does) which had been kept fasting for 18 hours was orally administered the compounds dissolved in twice distilled water. The same compounds dissolved in saline at pH-7 were intravenously injected in a further group of animals which had free access to food and drinking water. All of the animals were monitored for 7 days.

[2] = LD50 in mice (intravenous); details: mouse, in vivo, Weil's method
Procedure: LD50 was assessed according to the Carrol S. Weil's method (Biometrics, pages 249-263 (1952)) on male Albino Swiss mice weighing 22-24 g. The compounds dissolved in […] solution were administered via the intravenous route.

Normotensive cats [3] = assay: Measure of arterial pressure in normotensive cats; assay type: in vivo, cat; details: anesthetized cats, crural vein
Procedure: Normotensive cats of either sex weighing 2.5-3.5 kgs were used in this test.
The animals fasted for 18 hours were anesthetized with Na Nembutal (30 mg/kg) and ethyl urethane (300 mg/kg i.p.). The crural vein and artery of the animals were cannulated, the former for administering the compounds, the latter for monitoring the arterial pressure. The arterial pressure was measured via a mercury gauge connected to a rotating kymograph.
The compounds were dissolved in sterile 0.9% saline and administered at physiological pH in a 0.5 ml/kg volume.

Hypertensive DOCA rats = assay: Non-invasive measure of arterial pressure in rats made hypertensive (DOCA); assay type: in vivo, rat (male Wistar); details: oral, 40 mg/kg, 2-4 hours
Procedure: Male Wistar rats (Charles River) of 4 months were used in this test.
The compounds listed were solubilized in twice distilled water and administered via the oral route (40 mg/5 ml/kg).
The animals, housed in individual cages at 23° C. and 60% humidity, had free access to food and were made to drink 1% saline solution. The animals were administered 20 mg/kg s.c. of deoxycorticosterone acetate (DOCA) for 14 days on end.
A BP recorder (Letica) equipped with a two-way polygraph was used. The systolic and diastolic pressure, and the heart rate were recorded. The animals, a few days before the test began, were accustomed to be constrained on a heating plate (at 38° C.±1° C. for 20 minutes).
During the pre-test, assessments were made at time 0 (8^30 -9^30 a.m.) and after 2 and 4 hours.
Every assessment was the average of 3-5 measures and the maximum residence time of animal in the thermostatized chamber (for the whole test duration) was 40 minutes; the time interval between administrations of different doses of the same compound was 3 days.
as §1

Normotensive cats [4] = assay: Measure of arterial pressure in normotensive cats; assay type: in vivo, cat; details: dose 40 mg (os); entry (1)
[5] = intravenous, read-out: Tolerability, i.v.
[6] = oral, fasted 18 hours, read-out: Tolerability, os

With `COc1cc2c(cc1OC)CC(NCC(O)c1ccc(O)cc1)CC2` (stereo not shown) [ST 558, 2-[(N-2-p-hydroxyphenyl-2-ethanol)amino]-6,7-dimethoxy tetraline hydrochloride] the “Arterial pressure in hypertensive SHR rats” value (Hypertensive SHR rats; 3 hours) was -13 mm Hg, the “Arterial pressure in hypertensive SHR rats” value (Hypertensive SHR rats; 5 hours) was -31 mm Hg and the MTD at 168 h [1, 5] was > 50 mg/kg. For the same compound, the MTD at 168 h [1, 6] was > 50 mg/kg.
In the case of `COc1cc2c(cc1OC)CC(NCC(O)c1ccc(C)cc1)CC2` (stereo not shown) [ST 563, 2-[(N-2-p-methylphenyl-2-ethanol)amino]-6,7-dimethoxy tetraline], the LD50 [2] is reported as 35.7 mg/kg, the “Arterial pressure in hypertensive SHR rats” value (Hypertensive SHR rats; 2 hours) is reported as -65 mm Hg and the MTD at 168 h [1, 5] is reported as > 20 mg/kg. For the same compound, the MTD at 168 h [1, 6] was > 50 mg/kg.
In the case of `COc1ccc(C(O)CN(CC2CC2)C2CCc3cc(OC)c(OC)cc3C2)cc1` (stereo not shown) [ST 565, 2-[(N-methylcyclopropyl, N-p-methoxy-phenyl-2-ethanol)amino]-6,7-dimethoxy tetraline hydrochloride], the MTD at 168 h [1, 6] is reported as > 50 mg/kg.
For `CCCN(CC(O)c1ccccc1)C1CCc2cc(OC)c(OC)cc2C1` (stereo not shown) [ST 566, 2-[(N-propyl,N-phenyl-2-ethanol)amino]-6,7-dimethoxy tetraline hydrochloride], the MTD at 168 h [1, 5] was > 20 mg/kg and the MTD at 168 h [1, 6] was > 50 mg/kg.
With `COc1cc2c(cc1OC)CC(N(CC1CC1)CC(O)c1ccccc1)CC2` (stereo not shown) [ST 567, 2-[(N-methylcyclopropyl, N-phenyl-2-ethanol)amino]-6,7-dimethoxy tetraline hydrochloride] the LD50 [2] was 30.2 mg/kg, the MTD at 168 h [1, 5] was > 15 mg/kg and the MTD at 168 h [1, 6] was > 50 mg/kg.
For `CCN(CC(O)c1ccccc1)C1CCc2cc(OC)c(OC)cc2C1` (stereo not shown) [ST 570, 2-[(N-ethyl, N-2-phenyl-2-ethanol)amino]-6,7-dimethoxy tetraline hydrochloride], the “Arterial pressure in normotensive cats, hypotension” value (from here on “Arterial pressure … hypotension”) (Normotensive cats [3]; dose 1 mg/kg) was 64 mm Hg, the “Times of effect duration (hypotension in normotensive cats)” value (from here on “Times of effect duration”) (Normotensive cats [3]; dose 1 mg/kg) was “L (long >30 minutes)” and the LD50 [2] was 34.9 mg/kg. For the same compound, the “Arterial pressure in hypertensive SHR rats” value (Hypertensive SHR rats; 2 hours) was -29 mm Hg, the MTD at 168 h [1, 5] was > 20 mg/kg and the MTD at 168 h [1, 6] was > 50 mg/kg.
With `CCCN(CC(O)c1ccc(C)cc1)C1CCc2cc(OC)c(OC)cc2C1` (stereo not shown) [ST 571, 2-[(N-propyl,N-2-p-methylphenyl-2-ethanol)amino]-6,7-dimethoxy tetraline hydrochloride] the “Times of effect duration” value (Normotensive cats [3]; dose 1-2-4 mg/kg) was “M/B”, the LD50 [2] was 42.3 mg/kg and the MTD at 168 h [1, 5] was > 30 mg/kg. The MTD at 168 h [1, 6] was > 50 mg/kg.
In the case of `COc1cc2c(cc1OC)CC(N(CC1CC1)CC(O)c1ccc(C)cc1)CC2` (stereo not shown) [ST 574, 2-[(N-methylcyclopropyl, N-p-methylphenyl-2-ethanol)amino]-6,7-dimethoxy tetraline hydrochloride], the “Times of effect duration” value (Normotensive cats [3]; dose 1-2-4 mg/kg) is reported as “M/B”, the MTD at 168 h [1, 5] is reported as > 30 mg/kg and the MTD at 168 h [1, 6] is reported as > 50 mg/kg.
For `CCN(CCc1ccccc1)C1CCc2cc(OC)c(OC)cc2C1` (stereo not shown) [ST 577, 2-[(N-ethyl, N-2-phenylethyl)amino]-6,7-dimethoxy tetraline hydrochloride], the “Arterial pressure … hypotension” value (Normotensive cats [3]; dose 1 mg/kg) was 20 mm Hg, the “Times of effect duration” value (Normotensive cats [3]; dose 1 mg/kg) was “L (long >30 minutes)” and the “Arterial pressure … hypotension” value (Normotensive cats [3]; dose 2 mg/kg) was 44 mm Hg. The “Times of effect duration” value (Normotensive cats [3]; dose 2 mg/kg) was “M (average ≤30 minutes)”, the LD50 [2] was 35.7 mg/kg and the MTD at 168 h [1, 5] was > 20 mg/kg. For the same compound, the MTD at 168 h [1, 6] was > 50 mg/kg.
In the case of `COc1ccc(C(O)CNC2CCc3cc(OC)c(OC)cc3C2)cc1` (stereo not shown) [ST 578, 2-[(N-2-p-methoxyphenyl-2-ethanol)amino]-6,7-dimethoxy tetraline hydrochloride], the “Times of effect duration” value (Normotensive cats [3]; dose 1-2-4 mg/kg) is reported as “B/L”, the LD50 [2] is reported as 27.7 mg/kg and the “Arterial pressure in hypertensive SHR rats” value (Hypertensive SHR rats; 3 hours) is reported as -40 mm Hg. The “Arterial pressure in hypertensive SHR rats” value (Hypertensive SHR rats; 5 hours) was -27 mm Hg, the MTD at 168 h [1, 5] was > 15 mg/kg and the MTD at 168 h [1, 6] was > 50 mg/kg.
In the case of `COc1cc2c(cc1OC)CC(NCC(O)c1ccccc1)CC2` (stereo not shown) [ST 579, 2-[(N-2-phenyl-2-ethanol)amino]-6,7-dimethoxy tetraline hydrochloride], the LD50 [2] is reported as 35.7 mg/kg, the “Arterial pressure in hypertensive SHR rats” value (Hypertensive SHR rats; 2 hours) is reported as -26 mm Hg and the “Arterial pressure in hypertensive DOCA rats” value (Hypertensive DOCA rats) is reported as -20 mm Hg. For the same compound, the MTD at 168 h [1, 5] was > 20 mg/kg and the MTD at 168 h [1, 6] was > 50 mg/kg.
For `COc1cc2c(cc1OC)CC(NCC(O)c1ccc(C(F)(F)F)cc1)CC2` (stereo not shown) [ST 590, 2-[(N-2-p-trifluoromethylphenyl-2-ethanol)amino]6,7-dimethoxy tetraline hydrochloride], the “Arterial pressure … hypotension” value (Normotensive cats [4]) was 39 mm Hg, the “Times of effect duration” value (Normotensive cats [4]) was “L (long >30 minutes)” and the MTD at 168 h [1, 5] was > 50 mg/kg. The MTD at 168 h [1, 6] was > 50 mg/kg.
In the case of `CCN(CC(O)c1ccc(C(F)(F)F)cc1)C1CCc2cc(OC)c(OC)cc2C1` (stereo not shown) [ST 592, 2-[(N-ethyl, N-2-p-trifluoromethylphenyl-2-ethanol)-amino]-6,7-dimethoxy tetraline hydrochloride], the MTD at 168 h [1, 5] is reported as > 30 mg/kg and the MTD at 168 h [1, 6] is reported as > 50 mg/kg.
In the case of `COc1cc2c(cc1OC)CC(NCC(O)c1ccc(F)cc1)CC2` (stereo not shown) [ST 593, 2-[(N-2-p-fluorophenyl-2-ethanol)amino]-6,7-dimethoxy tetraline hydrochloride], the “Arterial pressure … hypotension” value (Normotensive cats [3]; dose 1 mg/kg) is reported as 12 mm Hg, the “Arterial pressure … hypotension” value (Normotensive cats [3]; dose 2 mg/kg) is reported as 16 mm Hg and the “Arterial pressure … hypotension” value (Normotensive cats [3]; dose 4 mg/kg) is reported as 26 mm Hg. For the same compound, the “Times of effect duration” value (Normotensive cats [3]; dose 1-2-4 mg/kg) was “M/B”, the MTD at 168 h [1, 5] was > 50 mg/kg and the MTD at 168 h [1, 6] was > 50 mg/kg.
For `COc1cc2c(cc1OC)CC(NCC(OC)c1ccccc1)CC2` (stereo not shown) [ST 600, 2-[(N-2-phenyl-2-methoxyethyl)amino]-6,7-dimethoxy tetraline hydrochloride], the “Arterial pressure … hypotension” value (Normotensive cats [3]; dose 2 mg/kg) was 28 mm Hg, the “Times of effect duration” value (Normotensive cats [3]; dose 2 mg/kg) was “B (short <5 minutes)” and the “Arterial pressure … hypotension” value (Normotensive cats [3]; dose 4 mg/kg) was 54 mm Hg. The “Times of effect duration” value (Normotensive cats [3]; dose 4 mg/kg) was “M (average ≤30 minutes)”, the LD50 [2] was 29.7 mg/kg and the MTD at 168 h [1, 5] was > 20 mg/kg. The MTD at 168 h [1, 6] was > 50 mg/kg.
